In patent US20050239791A1, “Substituted 1-heteroaryl-4-substituted piperazine and piperidine analogues” (priority 2004, published 2005):
Where two headings read alike, the source gives them in different places.

Molecular target: MCH receptor (Macaca fascicularis, UniProt A0A2K5VT41)
Assay: Calcium mobilization assay (Example 6)
Assay type: cell-based, Cynomolgus macaque
From the text: This Example illustrates a representative functional assay for monitoring the response of cells expressing melanin concentrating hormone receptors to melanin concentrating hormone. This assay can also be used to determine if test compounds act as agonists or antagonists of melanin concentrating hormone receptors.
Chinese Hamster Ovary (CHO) cells (American Type Culture Collection; Manassas, Va.) are stably transfected with the MCH expression vector via calcium phosphate precipitation, and are grown to a density of 15,000 cells/well in FALCON™ black-walled, clear-bottomed 96-well plates (#3904, BECTON-DICKINSON, Franklin Lakes, N.J.) in Ham's F12 culture medium (MEDIATECH, Herndon, Va.) supplemented with 10% fetal bovine serum, 25 mM HEPES and 500 μg/mL (active) G418. Prior to running the assay, the culture medium is emptied from the 96 well plates. […]
Fluorescence response is monitored upon the addition of either […] or test compound by a FLIPR™ plate reader (Molecular Devices, Sunnyvale, Calif.) by excitation at 480 nm and emission at 530 nm.
In order to measure the ability of a test compound to antagonize the response of cells expressing MCH receptors to MCH, the EC50 of MCH is first determined. […]
Test compounds are dissolved in DMSO, diluted in 20 μL KRH buffer, and added to cells prepared as described above. […] Just prior to determining the fluorescence response, 100 μL human MCH diluted in KRH buffer to 2×EC50 is automatically added by the FLIPR instrument to each well of the 96 well plate for a final sample volume of 200 μL and a final MCH concentration of EC50. […] Typically, antagonists of the MCH receptor decrease the fluorescence response by about 20%, preferably by about 50%, and most preferably by at least 80% as compared to matched controls. IC50 values for MCHR antagonists are determined using SIGMAPLOT software (SPSS Inc., Chicago, Ill.) and standard techniques. […]

Sequence of MCH receptor (A0A2K5VT41 70-422): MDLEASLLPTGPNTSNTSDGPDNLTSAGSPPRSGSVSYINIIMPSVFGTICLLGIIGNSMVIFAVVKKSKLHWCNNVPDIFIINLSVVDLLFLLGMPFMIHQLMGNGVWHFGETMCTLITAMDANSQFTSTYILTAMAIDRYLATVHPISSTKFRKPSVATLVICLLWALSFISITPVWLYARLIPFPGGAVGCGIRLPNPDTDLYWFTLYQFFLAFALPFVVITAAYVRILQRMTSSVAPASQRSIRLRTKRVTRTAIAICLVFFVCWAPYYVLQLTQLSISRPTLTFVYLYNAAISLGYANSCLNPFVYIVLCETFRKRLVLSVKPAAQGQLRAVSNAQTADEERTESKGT

COc1cc(N2CCN(C(C)c3ccnc(C)c3C)CC2)ccc1Cl (stereo not drawn) [Example 1, 1-(4-chloro-3-methoxyphenyl)-4-[1-(2,3-dimethylpyridin-4-yl)-ethyl]-piperazine]
EC50: < 1000 nM

Cc1nccc(CN2CCC(O)(c3ccc(Cl)c(C(F)(F)F)c3)CC2)c1C [Example 3, 4-(4-chloro-3-trifluoromethylphenyl)-1-(2,3-dimethyl-pyridin-4-ylmethyl)-piperidin-4-ol]
EC50 (calcium mobilization (FLIPR, Fluo-3) in CHO cells stably transfected with the MCH expression vector, read-out: EC50, determined as described in Example 6): < 1000 nM

COc1cc(N2CCN(C(C)c3ccnc4ccccc34)CC2)ccc1Cl (stereo not drawn) [Example 2, 4-{1-[4-(4-chloro-3-methoxyphenyl)piperazin-1-yl]ethyl}quinoline]
EC50: < 1000 nM
